Measured values reported in patent US6984659B2, “2-pyrrolidinone derivatives substituted at position 4 for reducing the extracellular glutamate level” (priority 1997, dated 2006).
“Also recorded” adds a separate entry of the source. Where a name gives a salt, the structure may show the parent alone.

Legend:
[1] = tested on: potassium-evoked release of [^3H]-noradrenaline; conditions: cited from earlier work
[2] = tested on: mitochondrial KATP channels; conditions: for comparison; cited from earlier work
[3] = tested on: electrically evoked release of Glu; test: electrically evoked [^3H]-Glu release from [^3H]-Gln-loaded hippocampus slices; assay type: cell-based, rat
[4] = tested on: ischemia-induced [^3H]-Glu release; test: in vitro ischemia model: ischemia-induced [^3H]-Glu release from [^3H]-Gln-loaded hippocampal slices; assay type: cell-based, rat
Experimental: Rat hippocampus slices 350 μm thick were incubated in 3 ml of medium at 37° C. for 60 minutes. The medium contained 2 μM [^3H]-Gln to label the endogenous Gln pool. The slices then synthesized Glu. The slices were washed and then exposed to superfusion with a buffer for 50 minutes. At 5-minute intervals, [^3H]-Glu was extracted by anion exchange chromatography from a total of 15 superfusion samples and was measured by liquid scintillation counting. The fractional rates of [^3H]-Glu release were calculated from the [^3H]-Glu extracted from the superfusion samples and from the tissue slices after the superfusion.
The model of endogenously produced [^3H]-Glu was likewise used to generate ischemic conditions in vitro. To make a slice “quasi ischemic”, oxygen and glucose were replaced by nitrogen and sucrose during the superfusion. Sucrose was used in place of […] glucose in order to maintain the osmolarity of the superfusion fluid. It is known that sucrose cannot be cleaved in vitro to glucose and fructose. Unlike the tests in which the [^3H]-Glu release was induced electrically, and in order to simulate an ischemia as well as possible, the [^3H]-Glu release was carried out during the incubation and superfusion at 37° C.
Slices of 350 μm thickness were incubated at 37° C. for 60 min in 3 ml medium containing 2 μM [^3H]-Gln in order to label endogenous Gln pools. These slices subsequently were synthesizing Glu. The slices were washed and then superfused for 50 min with buffer. [^3H]-Glu was extracted from 15 5-min-superfusion samples and from the slices by anion-exchange chromatography and measured by liquid scintillation counting. Fractional rates of [^3H]-Glu release were calculated from extracted [^3H]-Glu in the superfusion samples and in the tissue slices obtained after superfusion.
To reproduce in vitro ischemic conditions the model of endogenously formed [^3H]-Glu was also used. To make a slice “quasi-ischemic”, oxygen was replaced by nitrogen and glucose was replaced by sucrose during superfusion. Sucrose was used instead of glucose in order to maintain the osmolarity of the superfusion fluid without being cleaved into glucose and fructose in vitro. At variance to the experiments on electrically evoked [^3H]-Glu release and in order to mimic ischemia as close as possible the experiments on ischemia-induced [^3H]-Glu release were performed at 37° C. throughout incubation and superfusion.
To assess the potency of glibenclamide concentration-inhibition curves of GBP-L on ischemia-induced [^3H]-Glu efflux were obtained in the absence and presence of 0.1 μM glibenclamide (see Jehle et al. 2000).

CC(C)C[C@H](CN)CC(=O)O [pregabalin]
potassium-evoked release of [^3H]-noradrenaline (in words) [1]: inhibitory effects

CC1=NS(=O)(=O)c2cc(Cl)ccc2N1 [diazoxide]
IC50 [2]: 50 µM

NC1=N[C@H](O)[C@H]2[C@H]3O[C@]4(O)O[C@@H]([C@@H](O)[C@@]2(N1)[C@@H]4O)[C@]3(O)CO [TTX, tetrodotoxin, reference compound]
electrically evoked release of Glu (in words) [3]: partly inhibited; also recorded: widely inhibited

O=C(O)[C@@H]1CN[C@@H](C(=O)O)C1 (relative stereo) [PDC, L-trans-pyrrolidine-2,4-dicarboxylate]
response to the ischemia ([^3H]-Glu release) ([4]; 100 μM): noticeably reduced; also recorded: diminishes the response to ischemia markedly

COc1ccc(Cl)cc1C(=O)NCCc1ccc(S(=O)(=O)NC(=O)NC2CCCCC2)cc1 [glibenclamide]
pA2 value ([4]; glibenclamide 0.1 μM against GBP-L concentration-response curve): 8.28
influence on the effect of GBP-L on ischemia-induced [^3H]-Glu release ([4]; glibenclamide 1 μM): completely abolished

Nc1cc(N2CCCCC2)nc(N)[n+]1OS(=O)(=O)[O-] [minoxidil sulfate]
ischemia-induced [^3H]-Glu efflux (in words) ([4]; 10 μM): significantly reduced
